Results from patent US20040049056A1 (priority 2000, published 2004).
Like-named read-outs stand apart in the source and are kept apart here.

Legend:
Pyricularia oryzae = format: cell-based
Fusarium nivale = format: cell-based
Septoria tritici = format: cell-based
Pythium aphanidermatum = format: cell-based
Pytophthora infestans = format: cell-based
plant pathogenic fungi = test: Assay for antifungal activity of esculetin compounds (method similar to Assay example 1); format: cell-based
Text: The activities of the following esculetin compounds was confirmed by a method similar to Assay example 1.

plants = test: Assay for herbicidal activity of esculetin compounds (method similar to Assay example 2); format: in vivo
Text: The activities of the following esculetin compounds was confirmed by a method similar to Assay example 2.

## CC(=O)Oc1cc(OCc2ccccc2)c(OC(C)=O)cc1C=O [Compound (c), 2,5-diacetoxy-4-benzyloxybenzaldehyde]
Pyricularia oryzae; 10 mg/L, 3 DAT
  Rate of growth suppression (%) P.o: + (10 to 60%)
Fusarium nivale
  Rate of growth suppression (%) F.niv: ++ (key: −: less than 10%; +: 10 to 60%; ++: more than 60%)
Septoria tritici
  Rate of growth suppression (%) S.t: ++ (key: −: less than 10%; +: 10 to 60%; ++: more than 60%)
Pythium aphanidermatum
  Rate of growth suppression (%) P.a: + (key: −: less than 10%; +: 10 to 60%; ++: more than 60%)
Pytophthora infestans; 10 mg/L, 4 DAT
  Rate of growth suppression (%) P.i: + (10 to 60%)

## CC1(C)Oc2cc3ccc(=O)oc3cc2O1 [esculetin acetonide]
Plant pathogenic fungi
  Antifungal activity: confirmed
plants
  Herbicidal activity: confirmed

## O=Cc1cc(O)c(OCc2ccccc2)cc1O [Compound (b), 2,5-dihydroxy-4-benzyloxybenzaldehyde]
Pyricularia oryzae; 10 mg/L, 3 DAT
  Rate of growth suppression (%) P.o: + (10 to 60%)
Fusarium nivale
  Rate of growth suppression (%) F.niv: ++ (key: −: less than 10%; +: 10 to 60%; ++: more than 60%)
Septoria tritici
  Rate of growth suppression (%) S.t: + (key: −: less than 10%; +: 10 to 60%; ++: more than 60%)
Pythium aphanidermatum
  Rate of growth suppression (%) P.a: ++ (key: −: less than 10%; +: 10 to 60%; ++: more than 60%)
Pytophthora infestans; 10 mg/L, 4 DAT
  Rate of growth suppression (%) P.i: + (10 to 60%)

## O=c1ccc2cc3c(cc2o1)OCO3 [methylenedioxycoumarin]
Plant pathogenic fungi
  Antifungal activity: confirmed
plants
  Herbicidal activity: confirmed

## O=c1ccc2cc(O)c(OCc3ccccc3)cc2o1 [7-benzyloxy-6-hydroxycoumarin]
Plant pathogenic fungi
  Antifungal activity: confirmed
plants
  Herbicidal activity: confirmed

## CC1(C)Oc2cc(O)c(C=O)cc2O1 [Compound (e), 2,2-dimethyl-5-formyl-6-hydroxy-1,3-benzodioxol]
Pyricularia oryzae; 10 mg/L, 3 DAT
  Rate of growth suppression (%) P.o: + (10 to 60%)
Fusarium nivale
  Rate of growth suppression (%) F.niv: + (key: −: less than 10%; +: 10 to 60%; ++: more than 60%)
Septoria tritici
  Rate of growth suppression (%) S.t: + (key: −: less than 10%; +: 10 to 60%; ++: more than 60%)
Pythium aphanidermatum
  Rate of growth suppression (%) P.a: + (key: −: less than 10%; +: 10 to 60%; ++: more than 60%)
Pytophthora infestans; 10 mg/L, 4 DAT
  Rate of growth suppression (%) P.i: + (10 to 60%)
other
  melting point: 104 to 105 °C

## O=Cc1cc2c(cc1O)OCO2 [Compound (d), 4,5-methylenedioxysalicylaldehyde]
Pyricularia oryzae
  Rate of growth suppression (%) P.o: + (key: −: less than 10%; +: 10 to 60%; ++: more than 60%)
Fusarium nivale
  Rate of growth suppression (%) F.niv: + (key: −: less than 10%; +: 10 to 60%; ++: more than 60%)
Septoria tritici
  Rate of growth suppression (%) S.t: + (key: −: less than 10%; +: 10 to 60%; ++: more than 60%)
Pythium aphanidermatum
  Rate of growth suppression (%) P.a: + (key: −: less than 10%; +: 10 to 60%; ++: more than 60%)
Pytophthora infestans
  Rate of growth suppression (%) P.i: + (key: −: less than 10%; +: 10 to 60%; ++: more than 60%)
other
  melting point: 125 to 126 °C

## Oc1ccc(O)c(OCc2ccccc2)c1 [Compound (a), 2-benzyloxy-1,4-hydroquinone]
Pyricularia oryzae
  Rate of growth suppression (%) P.o: ++ (key: −: less than 10%; +: 10 to 60%; ++: more than 60%)
Fusarium nivale
  Rate of growth suppression (%) F.niv: + (key: −: less than 10%; +: 10 to 60%; ++: more than 60%)
Septoria tritici
  Rate of growth suppression (%) S.t: + (key: −: less than 10%; +: 10 to 60%; ++: more than 60%)
Pythium aphanidermatum
  Rate of growth suppression (%) P.a: + (key: −: less than 10%; +: 10 to 60%; ++: more than 60%)
Pytophthora infestans
  Rate of growth suppression (%) P.i: + (key: −: less than 10%; +: 10 to 60%; ++: more than 60%)
